Reference: the NIST ThermoML archive (doi:10.1016/j.fluid.2009.08.011)
Numbers after ± are expanded uncertainties.

Assay: cn = amount concentration of the nth substance listed, in mol/dm3
Details: 101 kPa, Liquid, Alternating current cell with electrodes

**Q.** What does the source list for `CCCCCn1cc[n+](C)c1.[Br-]` [1-pentyl-3-methylimidazolium bromide] + O?
**A.** molar conductivity (298.15 K, c1 = 0.000384): 0.0111 ± 0.0011 S·m2/mol; molar conductivity (298.15 K, c1 = 0.0008844): 0.0111 ± 0.0011 S·m2/mol; molar conductivity (298.15 K, c1 = 0.001373): 0.011 ± 0.0011 S·m2/mol; molar conductivity (298.15 K, c1 = 0.001897): 0.011 ± 0.0011 S·m2/mol; molar conductivity (298.15 K, c1 = 0.002397): 0.0109 ± 0.0011 S·m2/mol; molar conductivity (298.15 K, c1 = 0.003002): 0.0108 ± 0.0011 S·m2/mol; molar conductivity (298.15 K, c1 = 0.004323): 0.0107 ± 0.0011 S·m2/mol; molar conductivity (298.15 K, c1 = 0.005743): 0.0106 ± 0.0011 S·m2/mol; molar conductivity (298.15 K, c1 = 0.00718): 0.0105 ± 0.001 S·m2/mol; molar conductivity (298.15 K, c1 = 0.008646): 0.0104 ± 0.001 S·m2/mol; molar conductivity (298.15 K, c1 = 0.01011): 0.0102 ± 0.001 S·m2/mol; molar conductivity (298.15 K, c1 = 0.01145): 0.0102 ± 0.001 S·m2/mol; molar conductivity (298.15 K, c1 = 0.01293): 0.01 ± 0.001 S·m2/mol; molar conductivity (308.15 K, c1 = 0.0006353): 0.0115 ± 0.0011 S·m2/mol; molar conductivity (308.15 K, c1 = 0.001306): 0.0114 ± 0.0011 S·m2/mol; molar conductivity (308.15 K, c1 = 0.002028): 0.0113 ± 0.0011 S·m2/mol; molar conductivity (308.15 K, c1 = 0.002681): 0.0113 ± 0.0011 S·m2/mol; molar conductivity (308.15 K, c1 = 0.003351): 0.0112 ± 0.0011 S·m2/mol; molar conductivity (308.15 K, c1 = 0.003975): 0.0111 ± 0.0011 S·m2/mol; molar conductivity (308.15 K, c1 = 0.004605): 0.011 ± 0.0011 S·m2/mol; molar conductivity (308.15 K, c1 = 0.00598): 0.0109 ± 0.0011 S·m2/mol; molar conductivity (308.15 K, c1 = 0.007554): 0.0107 ± 0.0011 S·m2/mol; molar conductivity (308.15 K, c1 = 0.008895): 0.0106 ± 0.0011 S·m2/mol; molar conductivity (308.15 K, c1 = 0.01033): 0.0105 ± 0.001 S·m2/mol; molar conductivity (308.15 K, c1 = 0.01176): 0.0103 ± 0.001 S·m2/mol; molar conductivity (308.15 K, c1 = 0.01422): 0.0101 ± 0.001 S·m2/mol; molar conductivity (318.15 K, c1 = 0.0004898): 0.0136 ± 0.0014 S·m2/mol; molar conductivity (318.15 K, c1 = 0.001056): 0.0135 ± 0.0014 S·m2/mol; molar conductivity (318.15 K, c1 = 0.002177): 0.0134 ± 0.0013 S·m2/mol; molar conductivity (318.15 K, c1 = 0.003249): 0.0131 ± 0.0013 S·m2/mol; molar conductivity (318.15 K, c1 = 0.004768): 0.0128 ± 0.0013 S·m2/mol; molar conductivity (318.15 K, c1 = 0.006798): 0.0124 ± 0.0012 S·m2/mol; molar conductivity (318.15 K, c1 = 0.009143): 0.012 ± 0.0012 S·m2/mol; molar conductivity (318.15 K, c1 = 0.01259): 0.0115 ± 0.0011 S·m2/mol; molar conductivity (318.15 K, c1 = 0.01687): 0.0109 ± 0.0011 S·m2/mol; molar conductivity (318.15 K, c1 = 0.02234): 0.0103 ± 0.001 S·m2/mol; molar conductivity (328.15 K, c1 = 0.0004268): 0.0146 ± 0.0015 S·m2/mol; molar conductivity (328.15 K, c1 = 0.0008311): 0.0141 ± 0.0014 S·m2/mol; molar conductivity (328.15 K, c1 = 0.001314): 0.0139 ± 0.0014 S·m2/mol; molar conductivity (328.15 K, c1 = 0.002252): 0.0137 ± 0.0014 S·m2/mol; molar conductivity (328.15 K, c1 = 0.003274): 0.0135 ± 0.0014 S·m2/mol; molar conductivity (328.15 K, c1 = 0.004773): 0.0133 ± 0.0013 S·m2/mol; molar conductivity (328.15 K, c1 = 0.006329): 0.0131 ± 0.0013 S·m2/mol; molar conductivity (328.15 K, c1 = 0.008289): 0.0128 ± 0.0013 S·m2/mol; molar conductivity (328.15 K, c1 = 0.01078): 0.0125 ± 0.0013 S·m2/mol; molar conductivity (328.15 K, c1 = 0.01389): 0.0122 ± 0.0012 S·m2/mol; molar conductivity (328.15 K, c1 = 0.01791): 0.0118 ± 0.0012 S·m2/mol; molar conductivity (328.15 K, c1 = 0.02233): 0.0115 ± 0.0012 S·m2/mol; molar conductivity (328.15 K, c1 = 0.02611): 0.0111 ± 0.0011 S·m2/mol

**Q.** What does the source list for `CCCCn1cc[n+](C)c1.[Cl-]` [1-butyl-3-methylimidazolium chloride] + O?
**A.** molar conductivity (298.15 K, c1 = 0.0004271): 0.0109 ± 0.0011 S·m2/mol; molar conductivity (298.15 K, c1 = 0.0009378): 0.0108 ± 0.0011 S·m2/mol; molar conductivity (298.15 K, c1 = 0.001755): 0.0107 ± 0.0011 S·m2/mol; molar conductivity (298.15 K, c1 = 0.002553): 0.0106 ± 0.0011 S·m2/mol; molar conductivity (298.15 K, c1 = 0.002999): 0.0106 ± 0.0011 S·m2/mol; molar conductivity (298.15 K, c1 = 0.003835): 0.0105 ± 0.0011 S·m2/mol; molar conductivity (298.15 K, c1 = 0.004438): 0.0104 ± 0.001 S·m2/mol; molar conductivity (298.15 K, c1 = 0.004986): 0.0104 ± 0.001 S·m2/mol; molar conductivity (298.15 K, c1 = 0.005608): 0.0103 ± 0.001 S·m2/mol; molar conductivity (298.15 K, c1 = 0.006388): 0.0103 ± 0.001 S·m2/mol; molar conductivity (298.15 K, c1 = 0.007112): 0.0102 ± 0.001 S·m2/mol; molar conductivity (298.15 K, c1 = 0.008217): 0.0101 ± 0.001 S·m2/mol; molar conductivity (298.15 K, c1 = 0.008932): 0.0101 ± 0.001 S·m2/mol; molar conductivity (298.15 K, c1 = 0.009777): 0.00999 ± 0.001 S·m2/mol; molar conductivity (298.15 K, c1 = 0.01041): 0.00996 ± 0.001 S·m2/mol; molar conductivity (298.15 K, c1 = 0.01119): 0.00983 ± 0.00098 S·m2/mol; molar conductivity (298.15 K, c1 = 0.01216): 0.00978 ± 0.00098 S·m2/mol; molar conductivity (298.15 K, c1 = 0.01304): 0.00968 ± 0.00097 S·m2/mol; molar conductivity (298.15 K, c1 = 0.01389): 0.00962 ± 0.00096 S·m2/mol; molar conductivity (308.15 K, c1 = 0.0006735): 0.0111 ± 0.0011 S·m2/mol; molar conductivity (308.15 K, c1 = 0.001508): 0.011 ± 0.0011 S·m2/mol; molar conductivity (308.15 K, c1 = 0.002241): 0.011 ± 0.0011 S·m2/mol; molar conductivity (308.15 K, c1 = 0.002432): 0.0109 ± 0.0011 S·m2/mol; molar conductivity (308.15 K, c1 = 0.003588): 0.0108 ± 0.0011 S·m2/mol; molar conductivity (308.15 K, c1 = 0.004875): 0.0106 ± 0.0011 S·m2/mol; molar conductivity (308.15 K, c1 = 0.006007): 0.0104 ± 0.001 S·m2/mol; molar conductivity (308.15 K, c1 = 0.008219): 0.0103 ± 0.001 S·m2/mol; molar conductivity (308.15 K, c1 = 0.01013): 0.0103 ± 0.001 S·m2/mol; molar conductivity (308.15 K, c1 = 0.01259): 0.0102 ± 0.001 S·m2/mol; molar conductivity (308.15 K, c1 = 0.01457): 0.0101 ± 0.001 S·m2/mol; molar conductivity (308.15 K, c1 = 0.01708): 0.01 ± 0.001 S·m2/mol; molar conductivity (308.15 K, c1 = 0.01958): 0.01 ± 0.001 S·m2/mol; molar conductivity (308.15 K, c1 = 0.02199): 0.00998 ± 0.001 S·m2/mol; molar conductivity (318.15 K, c1 = 0.000681): 0.0119 ± 0.0012 S·m2/mol; molar conductivity (318.15 K, c1 = 0.001635): 0.0117 ± 0.0012 S·m2/mol; molar conductivity (318.15 K, c1 = 0.002388): 0.0113 ± 0.0011 S·m2/mol; molar conductivity (318.15 K, c1 = 0.003429): 0.0111 ± 0.0011 S·m2/mol; molar conductivity (318.15 K, c1 = 0.004391): 0.0109 ± 0.0011 S·m2/mol; molar conductivity (318.15 K, c1 = 0.006618): 0.0107 ± 0.0011 S·m2/mol; molar conductivity (318.15 K, c1 = 0.008725): 0.0105 ± 0.001 S·m2/mol; molar conductivity (318.15 K, c1 = 0.01078): 0.0103 ± 0.001 S·m2/mol; molar conductivity (318.15 K, c1 = 0.01367): 0.0101 ± 0.001 S·m2/mol; molar conductivity (318.15 K, c1 = 0.01671): 0.00997 ± 0.001 S·m2/mol; molar conductivity (318.15 K, c1 = 0.02016): 0.00981 ± 0.00098 S·m2/mol; molar conductivity (318.15 K, c1 = 0.02295): 0.0097 ± 0.00097 S·m2/mol; molar conductivity (318.15 K, c1 = 0.02493): 0.00962 ± 0.00096 S·m2/mol; molar conductivity (328.15 K, c1 = 0.0006908): 0.0125 ± 0.0012 S·m2/mol; molar conductivity (328.15 K, c1 = 0.0007995): 0.0124 ± 0.0012 S·m2/mol; molar conductivity (328.15 K, c1 = 0.001327): 0.0123 ± 0.0012 S·m2/mol; molar conductivity (328.15 K, c1 = 0.002041): 0.0121 ± 0.0012 S·m2/mol; molar conductivity (328.15 K, c1 = 0.002693): 0.012 ± 0.0012 S·m2/mol; molar conductivity (328.15 K, c1 = 0.004479): 0.0115 ± 0.0011 S·m2/mol; molar conductivity (328.15 K, c1 = 0.006054): 0.0113 ± 0.0011 S·m2/mol; molar conductivity (328.15 K, c1 = 0.007413): 0.0111 ± 0.0011 S·m2/mol; molar conductivity (328.15 K, c1 = 0.008786): 0.0109 ± 0.0011 S·m2/mol; molar conductivity (328.15 K, c1 = 0.01028): 0.0108 ± 0.0011 S·m2/mol; molar conductivity (328.15 K, c1 = 0.01229): 0.0106 ± 0.0011 S·m2/mol; molar conductivity (328.15 K, c1 = 0.01504): 0.0104 ± 0.001 S·m2/mol; molar conductivity (328.15 K, c1 = 0.01749): 0.0102 ± 0.001 S·m2/mol
